In ChEMBL document CHEMBL3244339, “Antitumor 1-(X-aryl)-3,3-dialkyltriazenes. 1. Quantitative structure-activity relationships vs. L1210 leukemia in mice” (J Med Chem, 1978):
The source made the active and inactive calls. The calls are words filed in the database; no cut-off is given here.

Key:
[1] = test system: L1210; test: Antitumor activity against mouse L1210 cells allografted in mouse assessed as increase of host lifespan of 110 days; type: functional, cell-based
[2] = Aqueous phase distribution coefficient, log P of the compound in phosphate buffer at pH 7.4; type: physicochemical
[3] = species: Mus musculus; test: Toxicity in mouse L1210 cells allografted mouse assessed as mortality up to 5 days; type: organism-based; settings: l1210, 120 h
[4] = test system: L1210; test: Antitumor activity against mouse L1210 cells allografted in mouse assessed as increase of host lifespan; type: functional
[5] = Distribution coefficient, log P of the compound; type: physicochemical; settings: octanol/water; read-out: logP

For CSc1ccccc1/N=N/N(C)C, the Activity [1] was “inactive” and the logD [2] was 3.13.

In the case of COc1ccccc1/N=N/N(C)C, the Activity [3] is reported as “Toxic” and the logD [2] is reported as 2.34.

With CN(C)/N=N/c1ccccc1C(N)=O the “log(1/C)” value [4] was 3.31, the logP [5] was 1.73 and the logD [2] was 1.73.

In the case of CN(C)/N=N/c1ccccc1, the “log(1/C)” value [4] is reported as 3.85, the logP [5] is reported as 2.59 and the logD [2] is reported as 2.59.
